Results as given in article PMC4985754, “Folding analysis of the most complex Stevedore’s protein knot” (Scientific Reports, 2016).

T1: DehI (Pseudomonas putida, UniProt Q8GJ84)
T1 construct: domains 1-130 and 166-296, linker 131-165
T1 sequence (Q8GJ84 1-296): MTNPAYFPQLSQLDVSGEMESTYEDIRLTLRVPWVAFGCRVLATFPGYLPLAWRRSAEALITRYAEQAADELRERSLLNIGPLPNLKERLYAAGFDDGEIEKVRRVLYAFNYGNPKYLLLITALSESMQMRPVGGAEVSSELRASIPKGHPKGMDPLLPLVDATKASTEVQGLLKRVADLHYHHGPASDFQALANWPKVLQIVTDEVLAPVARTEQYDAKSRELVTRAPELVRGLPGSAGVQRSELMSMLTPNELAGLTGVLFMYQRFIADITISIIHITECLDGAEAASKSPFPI


Tests used:
DehI = target: T1, DehI; test: colorimetric phenol red dehalogenase assay, absorbance at […] nm; assay type: biochemical; settings: 10 mM substrate, 10 uM enzyme, 50 mM HEPES pH 8.2, 20 mM Na2SO4, 1 mM EDTA, room temperature overnight
[1] = target: the molecule itself; test: SEC-MALS; DehI in solution, mono-dispersed major elution peak; buffer A (20 mM potassium phosphate pH 8, 300 mM NaCl) unless stated otherwise; observed MW compared with the theoretical MW of the homodimer

Row | Molecule | colorimetric phenol red dehalogenase assay, absorbance at 559 nm (DehI) | stoichiometry N [1]
1 | CC(Cl)C(=O)O (centres unmarked) [2-chloropropionic acid] | 2-chloropropionic acid was used as the substrate of DehI | –
2 | DehI, α-haloacid dehalogenase from Pseudomonas putida strain PP3 (enzyme, DehI, α-haloacid dehalogenase, Pseudomonas putida strain PP3; No tag cleavage is described; The theoretical MW of the homodimer is printed as 69.9 kDa, which may include the tag (surmise); also called wt; source: E. coli BL21 (DE3), purified (HisTrap HP, Superdex 200 SEC)) MTNPAYFPQLSQLDVSGEMESTYEDIRLTLRVPWVAFGCRVLATFPGYLPLAWRRSAEALITRYAEQAADELRERSLLNIGPLPNLKERLYAAGFDDGEIEKVRRVLYAFNYGNPKYLLLITALSESMQMRPVGGAEVSSELRASIPKGHPKGMDPLLPLVDATKASTEVQGLLKRVADLHYHHGPASDFQALANWPKVLQIVTDEVLAPVARTEQYDAKSRELVTRAPELVRGLPGSAGVQRSELMSMLTPNELAGLTGVLFMYQRFIADITISIIHITECLDGAEAASKSPFPI | – | 2
